From patent US5393923A, “3,5-di-t-butyl-4-hydroxyphenylmethylhydroxylamines and their derivatives, pharmaceutical compositions, and methods of use therefor” (Warner-Lambert Company, priority 1993, dated 1995)

Experiments:
5-lipoxygenase = target: T1, 5-lipoxygenase (Rattus norvegicus, UniProt P12527); test: ARBL whole cell 5-lipoxygenase assay (LTB4 formation, RBL-1 cells); assay type: cell-based; details: 50% inhibition of LTB4 formation
T1 construct: host or cells: RBL-1
T1 sequence (P12527 1-673): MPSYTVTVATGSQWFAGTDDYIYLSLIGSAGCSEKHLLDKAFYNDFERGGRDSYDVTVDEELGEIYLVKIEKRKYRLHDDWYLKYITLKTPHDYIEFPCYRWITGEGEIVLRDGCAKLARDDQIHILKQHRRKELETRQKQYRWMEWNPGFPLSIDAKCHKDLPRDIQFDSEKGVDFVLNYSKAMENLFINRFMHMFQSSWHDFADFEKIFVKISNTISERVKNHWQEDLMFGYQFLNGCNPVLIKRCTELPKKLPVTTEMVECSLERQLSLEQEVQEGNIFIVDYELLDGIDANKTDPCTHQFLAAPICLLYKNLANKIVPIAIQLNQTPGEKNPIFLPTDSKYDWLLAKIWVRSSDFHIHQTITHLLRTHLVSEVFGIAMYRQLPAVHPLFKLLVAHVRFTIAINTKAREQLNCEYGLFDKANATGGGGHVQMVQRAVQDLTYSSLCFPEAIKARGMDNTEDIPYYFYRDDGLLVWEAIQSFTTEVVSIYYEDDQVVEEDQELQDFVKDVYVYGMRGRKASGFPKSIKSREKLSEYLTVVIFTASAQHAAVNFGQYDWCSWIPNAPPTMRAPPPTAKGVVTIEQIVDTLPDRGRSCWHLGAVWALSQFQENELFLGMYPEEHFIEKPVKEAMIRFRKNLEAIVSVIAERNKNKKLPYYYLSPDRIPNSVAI
Method: (§1) ARBL/ARBC WHOLE CELL 5-LIPOXYGENASE AND CYCLOOXYGENASE ASSAYS The rat basophilic leukemia cell line (RBL-1) was obtained from the American Type Culture Collection (Rockville, Md.). Radioimmunoassay (RIA) kits of LTB4 and PGF2α were obtained from Amersham (Arlington Heights, Ill.) and Seragen (Boston, Mass.), respectively. RBL-1 cells are grown in suspension culture in Eagle's minimum essential medium supplemented with 12% fetal bovine serum at 37° C. in an incubator supplied with air-5% carbon dioxide. Cells are harvested by centrifugation. They are washed with cold phosphate-buffered saline, pH 7.4 (PBS; NaCl, 7.1 g; Na2 HPO4, 1.15 g; KH2 PO4, 0.2 g; and KCl, 0.2 g/L). Cells are finally suspended in PBS containing 1.0 mM calcium at a density of 2×10^6 cells/mL. Cells are incubated […] test agent (in DMSO) (1% DMSO is without effect on arachidonic acid metabolism) for 10 minutes at room temperature. Calcium ionophore A23187 (5 μM) is added and cells are incubated for 7 minutes at 37° C. The reaction is stopped by chilling the tubes on ice for 10 minutes. Cells are separated by centrifugation and the supernatant is stored at -20° C. Aliquots (100 μL) are analyzed for LTB4 and PGF2α using radioimmunoassay kits as provided by the supplier. Table 1 contains biochemical data for compounds of Formula I obtained from this whole cell assay as amount of inhibition at given μM or IC50 s which are calculated as the concentration of a test compound in micromoles (μM) causing 50% inhibition of LTB4 or PGF2αformation.

cyclooxygenase = target: T2, cyclooxygenase (Rattus norvegicus, UniProt Q63921); test: ARBC whole cell cyclooxygenase assay (PGF2α formation, RBL-1 cells); assay type: cell-based
T2 construct: host or cells: RBL-1
T2 sequence (Q63921 27-602): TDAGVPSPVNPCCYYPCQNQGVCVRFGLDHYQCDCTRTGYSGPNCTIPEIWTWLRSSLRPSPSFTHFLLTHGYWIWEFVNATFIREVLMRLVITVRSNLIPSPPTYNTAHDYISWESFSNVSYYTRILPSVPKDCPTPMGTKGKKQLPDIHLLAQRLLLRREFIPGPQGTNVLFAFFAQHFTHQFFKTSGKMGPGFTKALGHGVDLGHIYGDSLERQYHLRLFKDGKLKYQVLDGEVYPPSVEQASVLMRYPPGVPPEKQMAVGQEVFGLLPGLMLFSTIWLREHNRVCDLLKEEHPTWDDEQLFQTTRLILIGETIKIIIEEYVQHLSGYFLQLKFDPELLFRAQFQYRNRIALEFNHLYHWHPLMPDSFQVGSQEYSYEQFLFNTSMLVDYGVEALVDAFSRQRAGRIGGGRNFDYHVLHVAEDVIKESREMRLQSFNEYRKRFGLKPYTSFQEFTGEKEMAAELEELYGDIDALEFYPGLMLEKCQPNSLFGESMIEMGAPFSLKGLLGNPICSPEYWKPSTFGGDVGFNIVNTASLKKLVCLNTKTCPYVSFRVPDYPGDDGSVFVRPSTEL
Method: as §1

[1] = system: carrageenan-induced rat foot paw edema; test: Carrageenan-induced rat foot paw edema-2 (CFE-2) assay; assay type: in vivo; details: dosed 1 hour before carrageenan, edema measured 5 hours after, read-out: CFE ID40
Method: CARRAGEENAN-INDUCED RAT FOOT PAW EDEMA-2 (CFE-2) ASSAY: PROTOCOL
Carrageenan solution (1% w/v) is prepared by dissolving 100 mg carrageenan (Marine Colloidal Div., Springfield, N.J.) in 10 mL of sterile saline (0.9%) solution (Travenol). The solution is vortexed for 30 to 45 minutes. Animals are dosed with compound 1 hour before carrageenan challenge. Foot paw edema is induced by injecting 0.10 mL of the 1% carrageenan subcutaneously into the plantar portion of the right hind paw of each rat under light anesthesia. Initial foot paw volume is measured immediately following carrageenan challenge using mercury plethysmography (Buxco Electronics). Edema is measured 5 hours after carrageenan. The difference between the 5-hour and the initial paw volume is expressed as delta edema. The delta edema for each test group of animals is used to calculate the percent inhibition of edema achieved by the compound at the test dose compared with the vehicle control group. The ID40 (the dose at which swelling is inhibited by 40%) is calculated by probit analysis for the dose at which 40% inhibition occurs.

[2] = system: Mycobacterium-induced rat footpad edema; test: Mycobacterium-induced rat footpad edema assay (MFE); assay type: in vivo; details: dosed 1 hour before Mycobacterium and on Days 1 and 2, swelling at 72 hours, read-out: MFE ID40
Method: MYCOBACTERIUM-INDUCED RAT FOOTPAD EDEMA ASSAY (MFE): PROTOCOL
Mycobacterium butyricum (5 mg/mL) is suspended in paraffin oil by sonication for 10 minutes in an ice bath. Footpad edema is induced on Day 0 by injecting 0.1 mL of the Mycobacterium mixture into the left hindpaw of lightly anesthetized rats. Swelling in the injected hindpaw is determined by mercury plethysmography 72 hours after injection. Groups of rats are treated with test compounds (suspended in 0.5% hydroxypropyl methylcellulose with 0.2% Tween-80) or vehicle 1 hour before Mycobacterium injection and on Days 1 and 2. Inhibition of swelling is determined by comparing the change in hindpaw volume in compound- and vehicle-treated rats. An ID40 (the dose at which swelling is inhibited by 40%) is calculated by probit analysis.

gastric ulcers = test: Gastric ulcerogenicity (UD); assay type: in vivo, Male outbred Wistar rats; details: @ 200 mg/kg; oral, fasted rats, 6 hours; class symbol
Method: GASTRIC ULCEROGENICITY (UD): PROTOCOL
Male outbred Wistar rats (100 to 250 g) are fasted for 24 hours. After fasting, test compounds are administered orally (in 2 mL/kg of 0.5% hydroxypropyl methylcellulose) and the rats are denied access to food and water for 6 more hours. The rats are then sacrificed with CO2 so that the stomachs can be removed, opened along the greater curvature, and evaluated for the presence of gastric ulcers. Results are expressed as the percent of rats with gastric ulcers at a given dose or as the UD50 (the dose which causes ulcers in 50% of the rats).

IC50 (5-lipoxygenase) [µM] | IC50 (cyclooxygenase; 50% inhibition of PGF2α formation) [µM] | ARBC inhibition of PGF2α at given concentration (cyclooxygenase; @ 16 μM, A23187) | Structure (SMILES) | ED40 [1] [mg/kg] | ED40 [2] [mg/kg] | UD50 (gastric ulcers)
2.3 | 4.1 | – | CC(C)(C)c1cc(C(NO)c2ccccc2)cc(C(C)(C)C)c1O (centres unmarked) [Example 20] | 13.2 | 3.8 | N (N = less than 40% inhibition at given concentration)
4.8 | – | 42/75 | CC(=O)N(O)C(c1ccccc1)c1cc(C(C)(C)C)c(O)c(C(C)(C)C)c1 (centres unmarked) [Example 22, N-[[3,5-Bis(1,1-dimethylethyl)-4-hydroxyphenyl]-phenylmethyl]-N-hydroxyacetamide] | > 30 | – | –
